≈ marks a conversion by molar mass, not a printed value.
Legend:
Escherichia coli [1] = test: In vitro broth dilution minimal inhibitory concentration (standard microdilution method); type: cell-based; details: Escherichia coli; Mueller-Hinton broth; 24-hour; read-out: Microdilution Broth MIC
[2] = system: Staphylococcus epidermidis; test: as above; type: cell-based; details: 24 h, Mueller-Hinton broth, 24-hour, read-out: Microdilution Broth MIC
Staphylococcus aureus [3] = test: In vivo efficacy of compounds administered subcutaneously in mouse intraperitoneal infections; details: sc, 168 h; mouse i.p. Staphylococcus aureus infection; subcutaneous; dosed at infection and 4 h post-infection; 7 days; read-out: ED50 (50 percent effective dose)
Experimental: (§1) Determinations of in vivo efficacy are performed by inoculating mice intraperitoneally with cultures of the infecting organism diluted to produce 90-100% mortality in control animals within twenty-four hours. The diluents used were trypticase soy broth for E. coli and 5% aqueous hog gastric mucin for Staphylococcus aureus infections. The compounds are dissolved or suspended in 0.25% aqueous Methocel® (Methocel®: Hydroxypropyl Methylcellulose E15 Premium, Dow Chemical Company) for oral administration or sterile distilled water containing 5% dimethylsulfoxide (Fisher Scientific Company, Fairlawn, N.J.) for subcutaneous administration. The mice are dosed at the time of infection and again at four hours post-infection. Mortality is recorded daily until test termination seven days post infection and the 50 percent effective dose, ED50, is calculated by the Reed-Muench method (Reed, L. G. and Muench, H., "A simple method of estimating fifty percent end points," American Journal of Hygiene, 27, 493-497 (1938).

Escherichia coli [4] = test: as above; details: sc, 168 h; mouse i.p. Escherichia coli infection; subcutaneous; dosed at infection and 4 h post-infection; 7 days; read-out: ED50 (50 percent effective dose)
Experimental: as §1

Staphylococcus aureus [5] = test: In vivo efficacy of orally administered compounds in mouse intraperitoneal infections; details: Staphylococcus aureus, po, 168 h, mouse i.p. Staphylococcus aureus infection; oral; dosed at infection and 4 h post-infection; 7 days; read-out: ED50 (50 percent effective dose)
Experimental: as §1

Escherichia coli [6] = test: as above; details: 168 h; mouse i.p. Escherichia coli infection; oral; dosed at infection and 4 h post-infection; 7 days; read-out: ED50 (50 percent effective dose)
Experimental: as §1

Row | MIC (Escherichia coli [1]) | MIC [2] | SMILES | ED50 (Staphylococcus aureus [3]) | ED50 (Escherichia coli [4]) | ED50 (Staphylococcus aureus [5]) | ED50 (Escherichia coli [6])
1 | > 200 µg/mL | > 200 µg/mL | CCCCCCN(CC1CN(c2ccc(S(C)(=O)=O)cc2)C(=O)O1)C(C)=O (racemic) [Example 122, (dl)-N-Hexyl-N-[3-[4-(methylsulfonyl)phenyl]-2-oxooxazolidin-5-ylmethyl]acetamide] | 16.3 mg/kg | > 120 mg/kg | 48.4 mg/kg | > 120 mg/kg
2 | 9.4 µg/mL (≈ 24.7 µM) | 2.4 µg/mL (≈ 6.3 µM) | CS(=O)(=O)c1ccc(N2CC(CNC(=O)C(Cl)Cl)OC2=O)cc1 (single isomer, unassigned) [Example 22, (l)-2,2-Dichloro-N-[3-[4-(methylsulfonyl)phenyl]-2-oxooxazolidin-5-ylmethyl]acetamide] | – | 11.8 mg/kg | 14.2 mg/kg | 71.1 mg/kg
3 | > 100 µg/mL | 100 µg/mL (≈ 287 µM) | CS(=O)(=O)NCC1CN(c2ccc(S(C)(=O)=O)cc2)C(=O)O1 (single isomer, unassigned) [Example 25, (l)-N-[3-[4-(Methylsulfonyl)phenyl]-2-oxooxazolidin-5-ylmethyl]methanesulfonamide] | 83.6 mg/kg | > 100 mg/kg | > 360 mg/kg | –
4 | 100 µg/mL (≈ 305 µM) | 6.3 µg/mL (≈ 19.2 µM) | COC(=O)NCC1CN(c2ccc(S(C)(=O)=O)cc2)C(=O)O1 (single isomer, unassigned) [Example 26, (l)-N-[3-[4-(Methylsulfonyl)phenyl]-2-oxooxazolidin-5-ylmethyl]carbamic acid, methyl ester] | – | 40.7 mg/kg | 1.7 mg/kg | 56.2 mg/kg
5 | > 200 µg/mL | 12.5 µg/mL (≈ 42.2 µM) | COC(=O)NCC1CN(c2ccc(SC)cc2)C(=O)O1 (single isomer, unassigned) [Example 32, (l)-N-[3-[4-(methylthio)phenyl]-2-oxooxazolidin-5-ylmethyl]carbamic acid, methyl ester] | < 4.4 mg/kg | – | 3.5 mg/kg | 70.9 mg/kg
6 | 200 µg/mL (≈ 589 µM) | 200 µg/mL (≈ 589 µM) | CC(=O)NCC1CN(c2ccc(S(=O)(=O)N=[N+]=[N-])cc2)C(=O)O1 (single isomer, unassigned) [Example 114, (l)-N-[3-(4-Azidosulfonylphenyl)-2-oxooxazolidin-5-ylmethyl]acetamide] | – | 12.5 mg/kg | 15.3 mg/kg | 10.5 mg/kg
7 | > 200 µg/mL | 12.5 µg/mL (≈ 34.7 µM) | CC(=O)NCC1CN(c2ccc(I)cc2)C(=O)O1 (single isomer, unassigned) [Example 145, (l)-N-[3-(4-Iodophenyl)-2-oxo-5-oxazolidinylmethyl]acetamide] | 12.2 mg/kg | > 120 mg/kg | 50 mg/kg | –
8 | > 200 µg/mL | 200 µg/mL (≈ 716 µM) | CC(=O)NCC1CN(c2ccccc2[N+](=O)[O-])C(=O)O1 (single isomer, unassigned) [Example 148, (l)-N-[3-(2-Nitrophenyl)-2-oxooxazolidin-5-ylmethyl]acetamide] | 21.5 mg/kg | – | 21 mg/kg | > 120 mg/kg
9 | > 200 µg/mL | 100 µg/mL (≈ 401 µM) | CC(=O)NCC1CN(c2ccc(N)cc2)C(=O)O1 (single isomer, unassigned) [Example 149, (l)-N-[3-(4-Aminophenyl)-2-oxooxazolidin-5-ylmethyl]acetamide] | 10.3 mg/kg | – | 20.2 mg/kg | > 120 mg/kg
10 | > 200 µg/mL | > 200 µg/mL | CC(=O)NCC1CN(c2ccc(SC(C)=O)cc2)C(=O)O1 (single isomer, unassigned) [Example 152, (l)-N-[3-[4-(Acetylthio)phenyl]-2-oxooxazolidin-5-ylmethyl]acetamide] | < 2.5 mg/kg | – | 4.4 mg/kg | 24.8 mg/kg
11 | > 200 µg/mL | > 200 µg/mL | COC(=O)NCC1CN(c2ccc(SC(C)=O)cc2)C(=O)O1 (single isomer, unassigned) [Example 155] | < 4.4 mg/kg | – | 3 mg/kg | 82.2 mg/kg
12 | > 200 µg/mL | > 200 µg/mL | COC(=O)NCC1CN(c2ccc(S)cc2)C(=O)O1 (single isomer, unassigned) [Example 156, (l)-[3-(4-Mercaptophenyl)-2-oxooxazolidin-5-ylmethyl]carbamic acid, methyl ester] | < 4.4 mg/kg | – | 4.5 mg/kg | > 120 mg/kg
13 | > 128 µg/mL | 4 µg/mL (≈ 13.7 µM) | CC(=O)NCC1CN(c2ccc(C(C)=NO)cc2)C(=O)O1 (single isomer, unassigned) [Example 159, (l)-N-[3-(4-Acetylphenyl)-2-oxooxazolidin-5-ylmethyl]acetamide Oxime] | 1.1 mg/kg | 71.9 mg/kg | 2.6 mg/kg | –
14 | > 128 µg/mL | 2 µg/mL (≈ 6.79 µM) | CSCc1ccc(N2CC(CNC(C)=O)OC2=O)cc1 (single isomer, unassigned) [Example 163, (l)-N-[3-[4-(Methylthiomethyl)phenyl]-2-oxo-5-oxazolidinylmethyl]acetamide] | 3.2 mg/kg | 33.3 mg/kg | 5.4 mg/kg | –
15 | > 128 µg/mL | 16 µg/mL (≈ 51.6 µM) | CC(=O)NCC1CN(c2ccc(C[S+](C)[O-])cc2)C(=O)O1 (single isomer, unassigned) [Example 164, (l)-N-[3-[4-(Methylsulfinylmethyl)phenyl]-2-oxo-5-oxazolidinylmethyl]acetamide] | 9.4 mg/kg | > 120 mg/kg | 14 mg/kg | –
16 | > 200 µg/mL | 12.5 µg/mL | CC(=O)NCC1CN(c2ccc(C(=O)C[S+](C)[O-])cc2)C(=O)O1 (single isomer, unassigned) [Example 165, (l)-N-[3-[4-(Methylsulfinyl)acetylphenyl]-2-oxo-5-oxazolidinylmethyl]acetamide dihydrate] | 8.4 mg/kg | > 120 mg/kg | 16.4 mg/kg | –
17 | > 128 µg/mL | 4 µg/mL (≈ 13.8 µM) | CCC(=O)NCC1CN(c2ccc(C(C)=O)cc2)C(=O)O1 (single isomer, unassigned) [Example 171, (l)-N-[3-(4-Acetylphenyl)-2-oxo-5-oxazolidinylmethyl]propanamide] | 1.6 mg/kg | 21.6 mg/kg | 3.3 mg/kg | –
18 | > 128 µg/mL | 16 µg/mL (≈ 61.9 µM) | C#Cc1ccc(N2CC(CNC(C)=O)OC2=O)cc1 (single isomer, unassigned) [Example 182, (l)-N-[3-(4-Ethynylphenyl)-2-oxo-5-oxazolidinylmethyl]acetamide] | 7 mg/kg | > 120 mg/kg | 16 mg/kg | –
19 | > 200 µg/mL | 200 µg/mL (≈ 564 µM) | CC(C)(C)C(=O)NCC1CN(c2ccc(S(C)(=O)=O)cc2)C(=O)O1 (stereo not shown) [Example 30] | 57.4 mg/kg | > 120 mg/kg | > 120 mg/kg | –
20 | > 200 µg/mL | 50 µg/mL (≈ 161 µM) | CCOC(=O)NCC1CN(c2ccc(SC)cc2)C(=O)O1 (stereo not shown) [Example 33] | 8.6 mg/kg | – | 12.2 mg/kg | > 120 mg/kg
21 | > 200 µg/mL | 12.5 µg/mL (≈ 41.4 µM) | CC(=O)NCC1CN(c2ccc(C(F)(F)F)cc2)C(=O)O1 (stereo not shown) [Example 41] | 6.1 mg/kg | – | 5.3 mg/kg | > 120 mg/kg
22 | 100 µg/mL (≈ 292 µM) | 12.5 µg/mL (≈ 36.5 µM) | COCC(=O)NCC1CN(c2ccc(S(C)(=O)=O)cc2)C(=O)O1 (stereo not shown) [Example 57] | – | 12.9 mg/kg | 10.8 mg/kg | 39 mg/kg
23 | > 128 µg/mL | > 128 µg/mL | COC(=O)NCC1CN(c2ccc(Cl)cc2)C(=O)O1 (stereo not shown) [Example 84] | 80.5 mg/kg | – | 79.2 mg/kg | > 120 mg/kg
24 | > 200 µg/mL | 3.1 µg/mL (≈ 11.3 µM) | C=C(C)c1ccc(N2CC(CNC(C)=O)OC2=O)cc1 (stereo not shown) [Example 97] | 9.5 mg/kg | > 120 mg/kg | 4.9 mg/kg | –
25 | > 200 µg/mL | 6.25 µg/mL (≈ 22.6 µM) | CCCc1ccc(N2CC(CNC(C)=O)OC2=O)cc1 (stereo not shown) [Example 136] | < 4.4 mg/kg | 100 mg/kg | – | 100 mg/kg
26 | > 128 µg/mL | 4 µg/mL (≈ 15.3 µM) | CC(=O)c1ccc(N2CC(CNC=O)OC2=O)cc1 (stereo not shown) [Example 173] | 4.5 mg/kg | 79 mg/kg | 6.9 mg/kg | –
27 | 32 µg/mL (≈ 103 µM) | 1 µg/mL (≈ 3.22 µM) | CC(=O)c1ccc(N2CC(CNC(=O)CCl)OC2=O)cc1 (stereo not shown) [Example 174] | 12.2 mg/kg | > 120 mg/kg | 8.1 mg/kg | –
28 | 128 µg/mL (≈ 403 µM) | 4 µg/mL (≈ 12.6 µM) | CC(=O)c1ccc(N2CC(CNC(=O)CN=[N+]=[N-])OC2=O)cc1 (stereo not shown) [Example 175] | 8.2 mg/kg | 73.5 mg/kg | 6.6 mg/kg | –
29 | > 128 µg/mL | 4 µg/mL (≈ 14.4 µM) | CC(=O)c1ccc(N2CC(CNC(N)=O)OC2=O)cc1 (stereo not shown) [Example 177] | 2.8 mg/kg | 34 mg/kg | 3.7 mg/kg | –
30 | 128 µg/mL (≈ 438 µM) | 4 µg/mL (≈ 13.7 µM) | COC(=O)NCC1CN(c2ccc(C(C)=O)cc2)C(=O)O1 (stereo not shown) [Example 179] | 1.7 mg/kg | 83.1 mg/kg | 2 mg/kg | –

— patent US4705799A, “Aminomethyl oxooxazolidinyl benzenes useful as antibacterial agents” (E. I. Du Pont de Nemours and Company, priority 1985, dated 1987)
